{"source": "patent US20250255809A1", "about": "“OPHTHALMIC PHARMACEUTICAL COMPOSITIONS OF ROFLUMILAST” (Iolyx Therapeutics, Inc., priority 2021, published 2025)", "key": {"[1]": {"conditions": "as reported from the API manufacturer; cited from earlier work"}, "[2]": {"test": "Impact of dry heat sterilization on particle size of bulk roflumilast API", "type": "physicochemical", "conditions": "bulk API dried at 137° C. for 20 hours", "method": "The impact of dry heat sterilization on roflumilast was assessed. Bulk API of roflumilast was dried at 137° C. for 20 hours. The particle size of the roflumilast was measured. FIG. 14 provides a particle size distribution plot for the bulk API after dry heat sterilization."}}, "data": [{"smiles": "O=C(Nc1c(Cl)cncc1Cl)c1ccc(OC(F)F)c(OCC2CC2)c1", "note": "[Roflumilast, N-(3,5-dichloropyrid-4-yl)-3-cyclopropylmethoxy-4-difluoromethoxybenzamide]", "values": [{"measurement": "D90 of the API", "setting": "[1]", "value": "approximately 10 μm"}, {"measurement": "impact of dry heat sterilization on particle size distribution", "setting": "[2]", "value": "does not significantly impact the particle size distribution"}]}]}
